Entries after “also recorded” stand apart in the source; their conditions may differ.
Tests used:
Type in all cases: cell-based, human
IGR-CaP1-R100 cells = assay: Cell cycle analysis by flow cytometry after propidium iodide staining; conditions: IGR-CaP1-R100 cells resistant to 100 nM docetaxel, 100 nM docetaxel for 48 h
Method: (§1) Freshly plated IGR-CaP1 and IGR-CaP1-R100 cells were incubated for 48 h in complete medium containing or not 100 nM of docetaxel. Cell cycle distribution was studied on 70% cold ethanol-fixed cells, by propidium iodide staining (50 μg in PBS) and RNAse treatment (20 μg) followed by flow cytometry analysis (FACScalibur Becton-Dickinson).

IGR-CaP1 cells [1] = assay: as above; conditions: sensitive IGR-CaP1 cells, 100 nM docetaxel for 48 h
Method: as §1

LNCaP cells = assay: Hormone-dependent growth assay (WST1 cell survival); conditions: 10^-9M DHT for 72 hours, phenol red free medium with charcoal-stripped serum
Method: (§2) The cell growth kinetic was determined by counting the viable cell number at regular intervals. Cells were seeded in triplicate at 4000 cells/well in 12 well plates in normal culture medium or in medium containing 10% of charcoal-stripped serum. Each day, cells were colored with trypan blue and counted. The doubling-time was calculated from regression equation of the curve. For the hormone-dependent growth assay, cells were seeded at 10 000 cells/well in 96 well plates. After 24 h, the culture medium was replaced with medium without phenol red containing 10% of charcoal-stripped serum and the DHT was added or not at the final concentration of 10^−9M. The medium was replaced each day. After 72 hours, cell survival was measured with the WST1 test according the manufacturer's procedures.

PC3 cells = assay: as above; conditions: 10^-9M DHT for 72 hours, phenol red free medium with charcoal-stripped serum
Method: as §2

IGR-CaP1 cells [2] = assay: as above; conditions: 10^-9M DHT for 72 hours, phenol red free medium with charcoal-stripped serum
Method: as §2

IGR-CaP1-R100 cell line = assay: Resistance of the cell line to a cytotoxic drug

With `CC(=O)O[C@@]12CO[C@@H]1C[C@H](O)[C@@]1(C)C(=O)[C@H](O)C3=C(C)[C@@H](OC(=O)[C@H](O)[C@@H](NC(=O)OC(C)(C)C)c4ccccc4)C[C@@](O)([C@@H](OC(=O)c4ccccc4)[C@H]21)C3(C)C` [docetaxel] the “Cell cycle distribution (block in G2-M phase)” value (IGR-CaP1-R100 cells) was “normally cycle; also recorded: not blocked in G2-M phase” and the “Cell cycle distribution (block in G2-M phase)” value (IGR-CaP1 cells [1]) was “blocked in G2-M phase”.

For `C[C@]12CCC(=O)C[C@@H]1CC[C@@H]1[C@@H]2CC[C@]2(C)[C@@H](O)CC[C@@H]12` [DHT], the “Cellular growth in the presence of androgen” value (shortened to “Cellular growth”) (LNCaP cells) was “increased”, the “Cellular growth” value (PC3 cells) was “did not affect the cellular growth” and the “Cellular growth” value (IGR-CaP1 cells [2]) was “did not affect the cellular growth”.

With `N.N.[Cl][Pt][Cl]` [cisplatin] the “Resistance of the cell line to the drug” value (IGR-CaP1-R100 cell line) was “resistant”.

From US8674172B2, “Prostate cancer cell lines and their use in screening method” (Institut Gustave Roussy, priority 2009, dated 2014)
